Data as given in publication PMC12668308, “A Novel Antimalarial Agent that Inhibits Protein Synthesis in Plasmodium falciparum” (Angewandte Chemie (International Ed. in English), 2025).

Key:
[1] = test system: Uncharacterized protein (W7KAL3); experiment: iSPP profiling, P. falciparum lysate; assay type: binding, Plasmodium falciparum; conditions: 100 µM compound 34
Method: P. falciparum NF54 lysates were extracted as described in ^[26^] . The parasite asynchronous culture was extracted once 3-5% parasitemia was reached. Saponin lysis was done as described in 2.2.10. Once the parasite pellet was obtained, 2.5 volumes of ice-cold lysis buffer (50 mM Tris/HCl pH 7.5 (Avantor), 5% glycerol (Sigma-Aldrich), 150 mM NaCl (Carl Roth), 1.5 mM MgCl2 (Sigma-Aldrich), 1 mM DTT (Carl Roth), 0.8% IGEPAL CA-630 (Sigma-Aldrich), 1X Halt Protease and Phosphatase Inhibitor-Cocktails EDTA-free (Thermo Fisher Scientific)) was added to the parasite pellet. The lysate solution was subjected to three cycles of flash freeze-thaw with liquid nitrogen and ddH2O at RT. The lysates were centrifuged at 20,000 g for 20 minutes at 4 °C. The soluble protein fraction (supernatant) was collected and the protein content was quantified using the BCA assay (Pierce™ BCA Protein Assay Kit, Thermo Fisher Scientific). The lysate was stored at -80 °C until further use.
The P. falciparum lysate was thawed on ice and diluted to 0.8 mg/mL. The lysate was aliquoted, and each aliquot was incubated with either a vehicle control (DMSO), 34 (dissolved in DMSO), or varying concentrations of 31 (dissolved in DMSO) at 0.01 µM, 0.1 µM, 10 µM, 50 µM, and 100 µM. Subsequently, the samples were incubated at room temperature for 30 minutes using a rotating mixer. After distribution into a 96-well plate, the samples were treated with increasing concentrations of A.E.A. (v/v) ranging from 14% to 28% (14, 16, 18, 20, 22, 24, 26, and 28%). Following a 20-minute incubation at 37°C with shaking at 750 rpm, the samples were centrifuged at 4400 g for 35 minutes to remove precipitated proteins. The soluble fractions were then pooled in equal volumes into a single sample using the Bravo Automated Liquid Handling Platform. The pooled samples were subsequently prepared for LC-MS/MS analysis.
The raw LFQ-DIA intensity values of biological replicates across all conditions were normalized to the median abundance using Excel. The normalized values were then log2 transformed in Perseus (v2.0.10.0).^[58^] Missing values were imputed from a normal distribution (width 0.3, down shift 1.5), and p-values were obtained using a two-sample t-test over replicates with a permutation-based false discovery rate correction (FDR 0.05). Volcano plots were generated in RStudio using the EnhancedVolcano package (v. 1.20.0), ^[59^] plotting proteins by statistical significance (y-axis: –Log10 p-value) versus the magnitude of change (x-axis: log2 fold change of protein intensities for each compound condition relative to the vehicle control). The heatmap was generated in Perseus (v2.0.10.0). Dose-dependent curves were generated using normalized protein intensity values, expressed as a ratio to the vehicle control. Plots were created in GraphPad Prism (v8.3.0) using a nonlinear regression model.

[2] = test system: Dd2b2^pfmdr1 G182S; assay type: cell-based, Plasmodium falciparum; conditions: Dd2b2^pfmdr1 G182S vs Dd2b2^WT
Method: ^[a] 72-h [^3H] hypoxanthhine incorporation assay; Data is expressed as mean±s.d. The assay was performed in three independent biological experiments, each in biological duplicates
P. falciparum asexual blood stage parasites were cultured in human red blood cells (RBC, Blutspende SRK, Zurich) at a hematocrit of 5% in RPMI 1640 medium. The RPMI 1640 medium (ThermoFisher Scientific #51800−043) was supplemented with the following: 24 mM NaHCO3 (pH 7.3, Sigma-Aldrich #31437−500G-R), 25 mM Hepes (Sigma-Aldrich #H4034−500G), 0.36 mM hypoxanthine (Sigma-Aldrich # H9377−25G), 100 µg mL^-1 neomycin (Sigma-Aldrich #N6386−100G) and 0.5% Albumax II (Thermo Fisher #11021−045). Additionally, 2 mM choline chloride (279 mg/L, Sigma-Aldrich #C7527−100G) was added to the culture to block the induction of sexual commitment as described. ^[31^] The RPMI 1640 medium and components were dissolved in water (Milli-Q purified), stirred for at least 3 h, and then sterile filtered (0.22 μm pore size) with a bottle top filter (Corning # 431118). Parasite cultures were maintained in an atmosphere of 3% O2, 4% CO2, and 93% N2 in air-tight chambers at 37 °C. The [^3H]-hypoxanthine incorporation assay was used to test compound activity in the specific parasite lines as described.^[32^] Briefly, compounds were dissolved in DMSO (10 mM) and diluted in a hypoxanthine-free culture medium. A limiting dilution was performed over a 64-fold range (6-step twofold dilution) in a 96-well plate in duplicates. For every starting concentration, a limiting dilution was performed over a 64-fold range (6-step twofold dilution) in a 96-well plate in two biological duplicates. Parasites were added at 100 µL to each well containing the compound to obtain a final parasitemia of 0.3% and haematocrit of 1.25%. The plates were incubated for 48 h before 0.25 µCi of [^3H]-hypoxanthine was added per well for an additional 24 h. Parasites were harvested on a glass-fiber filter with a Microbeta FilterMate cell harvester (Perkin Elmer, Waltham, USA) and radioactivity was counted using a MicroBeta2 liquid scintillation counter (Perkin Elmer, Waltham, US). […] The fifty percent inhibitory concentration (IC50) was calculated by using nonlinear, four parameter (variable slope) curve fitting as described ^[33^] after importing into GraphPad Prism (version 8.3.0).

Row | SMILES | log2FC [1] | IC50 fold shift relative to parental clone [2]
1 | O=C(Nc1cc(CN2CCOCC2)ccc1F)c1cccc(Oc2cc(C(F)(F)F)ccn2)c1 [Compound 34, N-(2-Fluoro-5-(morpholinomethyl)phenyl)-3-((4-(trifluoromethyl)pyridin-2-yl)oxy)benzamide] | -0.4853 | –
2 | CN1CCN(Cc2ccc(O)c(NC(=O)c3cccc(Oc4cc(C(F)(F)F)ccn4)c3)c2)CC1 [Compound 31, N-(2-hydroxy-5-((4-methylpiperazin-1-yl)methyl)phenyl)-3-((4-(trifluoromethyl)pyridin-2-yl)oxy)benzamide] | – | 35.7
